In patent US20150374673A1, “Combination Therapy for the Treatment of Nosocomial Pneumonia” (priority 2013, published 2015):
Like-named read-outs stand apart in the source and are kept apart here.

Legend:
Experiment in all cases: MIC, CLSI broth microdilution in CAMHB with 0-10% pulmonary surfactant (avibactam fixed at 4 μg/mL in combination)
E. coli = assay type: cell-based; conditions: Escherichia coli
Protocol: (§1) The bacterial strains used in this testing were part of the microbiological culture collection housed at AstraZeneca R&D Boston (AstraZeneca Research Collection, designated ARC). The panel of bacterial isolates used for this testing was comprised of five CLSI QC reference strains and the remainder were either recent clinical isolates expressing β-lactamases or isolates from the primary bacterial screening panels.
(§2) MIC values were determined using the CLSI broth microdilution methodology with slight variation. Stock compound mother plates were prepared and used to spot 2 μL aliquots of serial 2-fold drug dilutions to columns 1-11 of 96-well daughter plates using a Perkin-Elmer MiniTrak™ MultiPosition dispenser. […] An inoculum volume of 100 μL (5×10E^5 CFU/mL) in CAMHB containing 0, 1, 2.5, 5, or 10% pulmonary surfactant was added using a multichannel Finnpipette® to each well of the 96-well plate.
(§3) The minimum inhibitory concentration (MIC) values against each organism/drug combination were determined using broth microdilution methodology according to CLSI guidelines. The recommended reference bacterial strains for each test group and reference compounds were incorporated into each test. For Gram-negatives, the reference bacterial strains were Escherichia coli ATCC 25922, E. coli ATCC 35218, Klebsiella pneumoniae ATCC 700603, and Pseudomonas aeruginosa ATCC 27853. Staphylococcus aureus ATCC 29213 was the reference bacterial strain for the Gram-positives.
(§4) MIC values for individual isolates were read visually. The MICs for each compound or combination in pulmonary surfactant was compared to the compound or combination tested in CAMHB alone.

K. pneumoniae = assay type: cell-based; conditions: Klebsiella pneumoniae
Protocol: as §1, §2, §3, §4

P. aeruginosa = assay type: cell-based, Pseudomonas aeruginosa
Protocol: as §1, §2, §3, §4

`NC(=O)[C@@H]1CC[C@@H]2CN1C(=O)N2OS(=O)(=O)[O-].[Na+]` [avibactam, [(2S,5R)-2-carbamoyl-7-oxo-1,6-diazabicyclo[3.2.1]octan-6-yl]hydrogen sulfate] showed an MIC (E. coli; ATCC25922, E. coli ARC4 (CLSI QC strain, ATCC 25922), surfactant 0%) of 32 µg/mL, an MIC (E. coli; ATCC25922, E. coli ARC4 (CLSI QC strain, ATCC 25922), surfactant 1%) of 32 µg/mL and an MIC (E. coli; ATCC25922, E. coli ARC4 (CLSI QC strain, ATCC 25922), surfactant 2.5%) of 32 µg/mL. The MIC (E. coli; ATCC25922, E. coli ARC4 (CLSI QC strain, ATCC 25922), surfactant 5%) was 16 µg/mL, the MIC (E. coli; ATCC25922, E. coli ARC4 (CLSI QC strain, ATCC 25922), surfactant 10%) was 16 µg/mL and the MIC (E. coli; ATCC35218, E. coli ARC016 (ATCC 35218, TEM-1), surfactant 0%) was 16 µg/mL. For the same molecule, the MIC (E. coli; ATCC35218, E. coli ARC016 (ATCC 35218, TEM-1), surfactant 1%) was 16 µg/mL, the MIC (E. coli; ATCC35218, E. coli ARC016 (ATCC 35218, TEM-1), surfactant 2.5%) was 16 µg/mL and the MIC (E. coli; ATCC35218, E. coli ARC016 (ATCC 35218, TEM-1), surfactant 5%) was 16 µg/mL. For the same molecule, the MIC (E. coli; ATCC35218, E. coli ARC016 (ATCC 35218, TEM-1), surfactant 10%) was 16 µg/mL, the MIC (E. coli; E. coli ARC523 (W3110), surfactant 0%) was > 64 µg/mL and the MIC (E. coli; E. coli ARC523 (W3110), surfactant 1%) was > 64 µg/mL. For the same molecule, the MIC (E. coli; E. coli ARC523 (W3110), surfactant 2.5%) was > 64 µg/mL, the MIC (E. coli; E. coli ARC523 (W3110), surfactant 5%) was > 64 µg/mL and the MIC (E. coli; E. coli ARC523 (W3110), surfactant 10%) was > 64 µg/mL. For the same molecule, the MIC (E. coli; E. coli ARC3666 (CTX-M-15, OXA-1/30, SHV-31, TEM-1), surfactant 0%) was 8 µg/mL, the MIC (E. coli; E. coli ARC3666 (CTX-M-15, OXA-1/30, SHV-31, TEM-1), surfactant 1%) was 8 µg/mL and the MIC (E. coli; E. coli ARC3666 (CTX-M-15, OXA-1/30, SHV-31, TEM-1), surfactant 2.5%) was 8 µg/mL. For the same molecule, the MIC (E. coli; E. coli ARC3666 (CTX-M-15, OXA-1/30, SHV-31, TEM-1), surfactant 5%) was 8 µg/mL, the MIC (E. coli; E. coli ARC3666 (CTX-M-15, OXA-1/30, SHV-31, TEM-1), surfactant 10%) was 8 µg/mL and the MIC (E. coli; E. coli ARC3690 (CTX-M-15, SHV-12), surfactant 0%) was 16 µg/mL. It also gave an MIC (E. coli; E. coli ARC3690 (CTX-M-15, SHV-12), surfactant 1%) of 16 µg/mL, an MIC (E. coli; E. coli ARC3690 (CTX-M-15, SHV-12), surfactant 2.5%) of 16 µg/mL and an MIC (E. coli; E. coli ARC3690 (CTX-M-15, SHV-12), surfactant 5%) of 16 µg/mL. The MIC (E. coli; E. coli ARC3690 (CTX-M-15, SHV-12), surfactant 10%) was 16 µg/mL, the MIC (K. pneumoniae; ATCC700603, K. pneumoniae ARC561 (ATCC 700603; SHV-18, OXA-2, OKP-6), surfactant 0%) was > 64 µg/mL and the MIC (K. pneumoniae; ATCC700603, K. pneumoniae ARC561 (ATCC 700603; SHV-18, OXA-2, OKP-6), surfactant 1%) was > 64 µg/mL. For the same molecule, the MIC (K. pneumoniae; ATCC700603, K. pneumoniae ARC561 (ATCC 700603; SHV-18, OXA-2, OKP-6), surfactant 2.5%) was > 64 µg/mL, the MIC (K. pneumoniae; ATCC700603, K. pneumoniae ARC561 (ATCC 700603; SHV-18, OXA-2, OKP-6), surfactant 5%) was 64 µg/mL and the MIC (K. pneumoniae; ATCC700603, K. pneumoniae ARC561 (ATCC 700603; SHV-18, OXA-2, OKP-6), surfactant 10%) was 64 µg/mL. For the same molecule, the MIC (K. pneumoniae; K. pneumoniae ARC1865 (Primary Screening Panel), surfactant 1%) was > 64 µg/mL, the MIC (K. pneumoniae; K. pneumoniae ARC1865 (Primary Screening Panel), surfactant 2.5%) was 64 µg/mL and the MIC (K. pneumoniae; K. pneumoniae ARC1865 (Primary Screening Panel), surfactant 5%) was > 64 µg/mL. The MIC (K. pneumoniae; K. pneumoniae ARC1865 (Primary Screening Panel), surfactant 10%) was > 64 µg/mL, the MIC (K. pneumoniae; K. pneumoniae ARC1865 (Primary Screening Panel), surfactant concentration cell empty) was > 64 µg/mL and the MIC (K. pneumoniae; K. pneumoniae ARC2528 (Clinical isolate), surfactant 0%) was 64 µg/mL. It also gave an MIC (K. pneumoniae; K. pneumoniae ARC2528 (Clinical isolate), surfactant 1%) of 64 µg/mL, an MIC (K. pneumoniae; K. pneumoniae ARC2528 (Clinical isolate), surfactant 2.5%) of 64 µg/mL and an MIC (K. pneumoniae; K. pneumoniae ARC2528 (Clinical isolate), surfactant 5%) of 64 µg/mL. The MIC (K. pneumoniae; K. pneumoniae ARC2528 (Clinical isolate), surfactant 10%) was 32 µg/mL, the MIC (K. pneumoniae; K. pneumoniae ARC2929 (KPC-3), surfactant 0%) was 8 µg/mL and the MIC (K. pneumoniae; K. pneumoniae ARC2929 (KPC-3), surfactant 1%) was 8 µg/mL. It also gave an MIC (K. pneumoniae; K. pneumoniae ARC2929 (KPC-3), surfactant 2.5%) of 8 µg/mL, an MIC (K. pneumoniae; K. pneumoniae ARC2929 (KPC-3), surfactant 5%) of 8 µg/mL and an MIC (K. pneumoniae; K. pneumoniae ARC2929 (KPC-3), surfactant 10%) of 8 µg/mL. The MIC (K. pneumoniae; K. pneumoniae ARC2945 (KPC-2, SHV-11, TEM-1, OXA-9), surfactant 0%) was 8 µg/mL, the MIC (K. pneumoniae; K. pneumoniae ARC2945 (KPC-2, SHV-11, TEM-1, OXA-9), surfactant 1%) was 8 µg/mL and the MIC (K. pneumoniae; K. pneumoniae ARC2945 (KPC-2, SHV-11, TEM-1, OXA-9), surfactant 2.5%) was 8 µg/mL. For the same molecule, the MIC (K. pneumoniae; K. pneumoniae ARC2945 (KPC-2, SHV-11, TEM-1, OXA-9), surfactant 5%) was 8 µg/mL, the MIC (K. pneumoniae; K. pneumoniae ARC2945 (KPC-2, SHV-11, TEM-1, OXA-9), surfactant 10%) was 8 µg/mL and the MIC (K. pneumoniae; K. pneumoniae ARC3713 (CTX-M-15, OXA-1/30, SHV-5, TEM-1), surfactant 0%) was 16 µg/mL. The MIC (K. pneumoniae; K. pneumoniae ARC3713 (CTX-M-15, OXA-1/30, SHV-5, TEM-1), surfactant 1%) was 16 µg/mL, the MIC (K. pneumoniae; K. pneumoniae ARC3713 (CTX-M-15, OXA-1/30, SHV-5, TEM-1), surfactant 2.5%) was 16 µg/mL and the MIC (K. pneumoniae; K. pneumoniae ARC3713 (CTX-M-15, OXA-1/30, SHV-5, TEM-1), surfactant 5%) was 16 µg/mL. For the same molecule, the MIC (K. pneumoniae; K. pneumoniae ARC3713 (CTX-M-15, OXA-1/30, SHV-5, TEM-1), surfactant 10%) was 16 µg/mL, the MIC (P. aeruginosa; P. aeruginosa ARC3 (CLSI QC strain, ATCC 27853), surfactant 1%) was >64 µg/mL and the MIC (P. aeruginosa; P. aeruginosa ARC3 (CLSI QC strain, ATCC 27853), surfactant 2.5%) was >64 µg/mL. For the same molecule, the MIC (P. aeruginosa; P. aeruginosa ARC3 (CLSI QC strain, ATCC 27853), surfactant 5%) was >64 µg/mL, the MIC (P. aeruginosa; P. aeruginosa ARC3 (CLSI QC strain, ATCC 27853), surfactant 10%) was >64 µg/mL and the MIC (P. aeruginosa; P. aeruginosa ARC545 (PAO1), surfactant 1%) was >64 µg/mL. For the same molecule, the MIC (P. aeruginosa; P. aeruginosa ARC545 (PAO1), surfactant 2.5%) was >64 µg/mL, the MIC (P. aeruginosa; P. aeruginosa ARC545 (PAO1), surfactant 5%) was >64 µg/mL and the MIC (P. aeruginosa; P. aeruginosa ARC545 (PAO1), surfactant 10%) was >64 µg/mL. The MIC (P. aeruginosa; P. aeruginosa ARC2532 (Clinical isolate), surfactant 0%) was >64 µg/mL, the MIC (P. aeruginosa; P. aeruginosa ARC2532 (Clinical isolate), surfactant 1%) was >64 µg/mL and the MIC (P. aeruginosa; P. aeruginosa ARC2532 (Clinical isolate), surfactant 2.5%) was >64 µg/mL. The MIC (P. aeruginosa; P. aeruginosa ARC2532 (Clinical isolate), surfactant 5%) was >64 µg/mL, the MIC (P. aeruginosa; P. aeruginosa ARC2532 (Clinical isolate), surfactant 10%) was >64 µg/mL and the MIC (P. aeruginosa; P. aeruginosa ARC2761 (Clinical isolate), surfactant 1%) was >64 µg/mL. The MIC (P. aeruginosa; P. aeruginosa ARC2761 (Clinical isolate), surfactant 2.5%) was >64 µg/mL, the MIC (P. aeruginosa; P. aeruginosa ARC2761 (Clinical isolate), surfactant 5%) was >64 µg/mL and the MIC (P. aeruginosa; P. aeruginosa ARC2761 (Clinical isolate), surfactant 10%) was >64 µg/mL. For the same molecule, the MIC (P. aeruginosa; P. aeruginosa ARC3508 (derepressed AmpC), surfactant 0%) was >64 µg/mL, the MIC (P. aeruginosa; P. aeruginosa ARC3508 (derepressed AmpC), surfactant 1%) was >64 µg/mL and the MIC (P. aeruginosa; P. aeruginosa ARC3508 (derepressed AmpC), surfactant 2.5%) was >64 µg/mL. For the same molecule, the MIC (P. aeruginosa; P. aeruginosa ARC3508 (derepressed AmpC), surfactant 5%) was >64 µg/mL, the MIC (P. aeruginosa; P. aeruginosa ARC3508 (derepressed AmpC), surfactant 10%) was >64 µg/mL and the MIC (P. aeruginosa; Pseudomonas aeruginosa, ATCC27853, P. aeruginosa ARC3 (CLSI QC strain, ATCC 27853), surfactant 0%, read-out: MIC) was > 64 µg/mL. The MIC (P. aeruginosa; Pseudomonas aeruginosa, P. aeruginosa ARC545 (PAO1), surfactant 0%, read-out: MIC) was > 64 µg/mL and the MIC (P. aeruginosa; Pseudomonas aeruginosa, P. aeruginosa ARC2761 (Clinical isolate), surfactant 0%, read-out: MIC) was > 64 µg/mL.
